Measurements from patent publication US20240260575A1, “AGRICULTURAL AND HORTICULTURAL FUNGICIDAL COMPOSITION” (Nippon Soda Co., Ltd., priority 2021, published 2024).

Key:
[1] = tested on: gray mold pathogen (Botrytis cinerea); assay: Gray mold antimicrobial test (growth inhibition rate); format: cell-based; design: growth inhibition rate, component (II) alone: concentration or dose not given beside the values; details: for growth inhibition rate: Compound 5 (0.25 or 0.063 ppm, head span unclear) alone or mixed with component (II)
Procedure: (Test Example) Gray Mold Antimicrobial Test (Growth Inhibition Rate)
Conidiospores of a gray mold pathogen (Botrytis cinerea) were added to and dispersed in a yeast extract sucrose medium, and a component (I) and a component (II) dissolved in dimethyl sulfoxide at predetermined concentrations were further added and mixed thereto, and the resulting solution was dispensed onto a 96-well microplate and cultivated in the dark at 20° C. for 3 to 5 days. After the cultivation, the turbidity at a wavelength of 405 nm was measured by a microplate reader and compared with that in the untreated case to determine the growth inhibition rate (%) for the gray mold pathogen. The test was duplicately carried out. The results are shown in Tables 3 to 7 together with expected values calculated as follows.
Expected values were calculated by using Colby's equation: E=M+N−MN/100. Here, E denotes an expected value (%) of a growth inhibition rate, M denotes a growth inhibition rate (%) in using a component (I) alone, and N denotes a growth inhibition rate (%) in using a component (II) alone.
If the actually measured growth inhibition rate (%) of a composition of a component (I) and a component (II) is higher than the expected value, E, the composition of a component (I) and a component (II) is said to have exerted synergistic effect.

[2] = tested on: cucumber powdery mildew pathogen (Sphaerotheca fuliginea); assay: Cucumber powdery mildew control test; format: in vivo; design: scale not given here; details: for control value: Compound 5 0.4 ppm alone or mixed with component (II), sprayed onto cucumber seedlings
Description: (Test Example) Cucumber Powdery Mildew Control Test 1) Preparation of Drug Solution for Test […] The other components (II) were each formulated into an aqueous solution or suspension having a predetermined concentration. 2) Test A mixed solution of a component (I) and a component (II) at a predetermined concentration was sprayed onto cucumber seedlings (variety: “Shimo-shirazu, creeping type”, cotyledon stage). After natural drying at room temperature, conidiospores of a cucumber powdery mildew pathogen (Sphaerotheca fuliginea) were inoculated by blushing off, and the seedlings were kept in a thermostatic room at 20° C. using a 12 hour light/dark cycle for 7 to 10 days. The states of lesion development on leaves were examined by comparing with that for the untreated case, and the control values were determined. The test was duplicately carried out. The results are shown in Tables 8 to 12 together with expected values calculated as follows. Expected values were calculated by using Colby's equation: […] Here, E denotes an expected value of a control value, M denotes a control value in using a component (I) alone, and N denotes a control value in using a component (II) alone. If the actually measured control value of a composition of a component (I) and a component (II) is higher than the expected value, E, the composition of a component (I) and a component (II) is said to have exerted synergistic effect.

[3] = Table 8, ppm or dilution rate: Thiophanate-methyl 1.6, Triflumizole 25, Cyflufenamid 1.6, Iminoctadine acetate 0.25, Iminoctadine albesilate 1, Picarbutrazox 2000, Ipflufenoquin 1, Bacillus subtilis ×250, Pseudomonas rhodesiae ×2000, Sodium hydrogen carbonate 250, Potassium bicarbonate 250, Orange oil 4000, Linalool 4000, Thymol 100, Neem oil 2000, Prothioconazole 1.6, Mancozeb 63, Mineral oil 500
[4] = Table 9, ppm or dilution rate: Thiophanate-methyl 1.6, Triflumizole 25, Cyflufenamid 1.6, Iminoctadine acetate 0.25, Iminoctadine albesilate 1, Picarbutrazox 2000, Ipflufenoquin 1, Bacillus subtilis ×250, Pseudomonas rhodesiae ×2000, Sodium hydrogen carbonate 250, Potassium bicarbonate 250, Orange oil 1000, Linalool 4000, Thymol 100, Neem oil 2000, Prothioconazole 1.6, Mancozeb 63, Mineral oil 500
[5] = Table 10, ppm or dilution rate: Thiophanate-methyl 1.6, Triflumizole 25, Cyflufenamid 1.6, Iminoctadine acetate 0.25, Iminoctadine albesilate 1, Picarbutrazox 2000, Ipflufenoquin 1, Bacillus subtilis ×1000, Pseudomonas rhodesiae ×2000, Sodium hydrogen carbonate 250, Potassium bicarbonate 250, Orange oil 1000, Linalool 4000, Thymol 100, Neem oil 2000, Prothioconazole 1.6, Mancozeb 63, Mineral oil 5
[6] = Table 11, ppm or dilution rate: Thiophanate-methyl 1.6, Triflumizole 25, Cyflufenamid 1.6, Iminoctadine acetate 1, Iminoctadine albesilate 1, Picarbutrazox 2000, Ipflufenoquin 1, Bacillus subtilis ×1000, Pseudomonas rhodesiae ×2000, Sodium hydrogen carbonate 250, Potassium bicarbonate 250, Orange oil 1000, Linalool 4000, Thymol 100, Neem oil 2000, Prothioconazole 1.6, Mancozeb 63, Mineral oil 500
[7] = Table 12, ppm or dilution rate: Thiophanate-methyl 1.6, Triflumizole 25, Cyflufenamid 1.6, Iminoctadine acetate 0.25, Iminoctadine albesilate 1, Picarbutrazox 2000, Ipflufenoquin 1, Bacillus subtilis ×1000, Pseudomonas rhodesiae ×2000, Sodium hydrogen carbonate 1000, Potassium bicarbonate 250, Orange oil 1000, Linalool 4000, Thymol 400, Neem oil 2000, Prothioconazole 1.6, Mancozeb 63, Mineral oil
[8] = Table 3, ppm: Ipflufenoquin 10, Cyflufenamid 10, Thiophamate-methyl 0.4, Iminoctadine acetate 0.08, Iminoctadine albesilate 0.08, Triflumizole 0.0032, Picarbutrazox 0.08, Prothioconazole 0.0032, Mefentrifluconazole 0.00064, Cymoxanil 10, Fludioxonil 0.016, Metyltetraprole 0.4, Florylpicoxamid 0.08, Fluxapyroxad 0.08, Fluopyram 0.4, Potassium phosphite 10, Fipronil 2, Chlorantraniliprole 0.016, Aba
[9] = Table 4, ppm: Ipflufenoquin 10, Cyflufenamid 2, Thiophamate-methyl 0.4, Iminoctadine acetate 0.08, Iminoctadine albesilate 0.4, Picarbutrazox 10, Prothioconazole 0.0032, Mefentrifluconazole 0.0006, Cymoxanil 10, Fludioxonil 0.016, Metyltetraprole 10, Fluxapyroxad 0.016, Fluopyram 0.4, Potassium phosphite 10, Fipronil 2, Chlorantraniliprole 0.016, Abamectin 0.016, Sulfoxaflor 10, Tebufenozide 0.016
[10] = Table 5, ppm: Ipflufenoquin 10, Cyflufenamid 10, Thiophamate-methyl 0.4, Iminoctadine albesilate 0.4, Picarbutrazox 0.0032, Mefentrifluconazole 0.0006, Cymoxanil 10, Captan 0.0032, Fludioxonil 0.016, Metyltetraprole 10, Florylpicoxamid 0.0001, Fluxapyroxad 0.016, Fluopyram 0.0032, Potassium phosphite 0.08, Fipronil 2, Chlorantraniliprole 0.016, Abamectin 0.4, Sulfoxaflor 0.4, Tebufenozide 10
[11] = Table 6, ppm: Ipflufenoquin 10, Cyflufenamid 0.08, Thiophamate-methyl 2, Triflumizole 0.08, Picarbutrazox 0.0016, Prothioconazole 0.0006, Mefentrifluconazole 0.08, Cymoxanil 0.08, Captan 0.08, Fludioxonil 0.016, Metyltetraprole 10, Florylpicoxamid 0.0006, Fluxapyroxad 0.0032, Fluopyram 0.016, Potassium phosphite 0.016, Fipronil 10, Chlorantraniliprole 0.08, Abamectin 2, Sulfoxaflor 0.08, Tebufenoz
[12] = Table 7, ppm: Ipflufenoquin 0.08, Cyflufenamid 0.08, Thiophamate-methyl 2, Iminoctadine acetate 0.0001, Iminoctadine albesilate 0.4, Triflumizole 0.4, Prothioconazole 0.0032, Mefentrifluconazole 0.08, Cymoxanil 0.08, Captan 0.08, Fludioxonil 0.08, Metyltetraprole 0.0032, Florylpicoxamid 0.0006, Fluxapyroxad 0.016, Fluopyram 0.0032, Potassium phosphite 0.016, Fipronil 2, Chlorantraniliprole 0.016

Compound | control value, component (II) alone [2, 3] | control value, component (II) alone [2, 4] | control value, component (II) alone [2, 5] | control value, component (II) alone [2, 6] | control value, component (II) alone [2, 7] | growth inhibition rate, component (II) alone [1, 8] [%] | growth inhibition rate, component (II) alone [1, 9] [%] | growth inhibition rate, component (II) alone [1, 10] [%] | growth inhibition rate, component (II) alone [1, 11] [%] | growth inhibition rate, component (II) alone [1, 12] [%] | also measured
COc1ccc(F)cc1C(Cn1cc(/C(C)=N/OC(C)C)c(=O)n(C[C@H](C)NC(=O)C(C)C)c1=O)OCCC#N (stereo partly drawn) [Compound 5] | – | – | – | – | – | – | – | – | – | – | growth inhibition rate ([1]; Table 7, Examination 1): 61%; growth inhibition rate ([1]; Table 7, Examination 2): 43%; growth inhibition rate ([1]; Table 7, Examination 3): 13%; growth inhibition rate ([1]; Table 7, Examination 4): 3%; growth inhibition rate ([1]; Table 7, Examination 5): 3%; growth inhibition rate ([1]; Table 7, Examination 6): 2%; control value ([2]; Table 12, Examination 1): 83; control value ([2]; Table 12, Examination 2): 60; control value ([2]; Table 12, Examination 3): 56; control value ([2]; Table 12, Examination 4): 50; control value ([2]; Table 12, Examination 5): 67; control value ([2]; Table 12, Examination 6): 50; control value ([2]; Table 12, Examination 7): 67
C=CC(C)(O)CCC=C(C)C (stereo not drawn) [Linalool] | 27 | 27 | 17 | 17 | 27 | – | – | – | – | – | –
OC(Cc1ccccc1Cl)(Cn1nc[nH]c1=S)C1(Cl)CC1 (stereo not drawn) [Prothioconazole] | 50 | 0 | 17 | 0 | 0 | – | – | – | – | – | –
CCCOC/C(=N\c1ccc(Cl)cc1C(F)(F)F)n1ccnc1 [Triflumizole] | 27 | 27 | 27 | 27 | 27 | – | – | – | – | – | –
O=C(Cc1ccccc1)N/C(=N\OCC1CC1)c1c(C(F)(F)F)ccc(F)c1F [Cyflufenamid] | 50 | 50 | 50 | 50 | 50 | – | – | – | – | – | –
Potassium phosphite | – | – | – | – | – | 0 | 0 | 0 | 1 | 12 | –
Cn1cc(C(=O)Nc2ccccc2-c2cc(F)c(F)c(F)c2)c(C(F)F)n1 [Fluxapyroxad] | – | – | – | – | – | 8 | 10 | 10 | 10 | 11 | –
O=C([O-])O.[K+] [Potassium bicarbonate] | 64 | 64 | 17 | 64 | 64 | – | – | – | – | – | –
COC(=O)NC(=S)Nc1ccccc1NC(=S)NC(=O)OC [Thiophanate-methyl] | 83 | 83 | 0 | 67 | 17 | – | – | – | – | – | –
Abamectin | – | – | – | – | – | 0 | 0 | 64 | 12 | 0 | –
CC(O)(Cn1cncn1)c1ccc(Oc2ccc(Cl)cc2)cc1C(F)(F)F (stereo not drawn) [Mefentrifluconazole] | – | – | – | – | – | 0 | 0 | 48 | 37 | 34 | –
Cc1ccc(C(C)C)c(O)c1 [Thymol] | 17 | 17 | 17 | 17 | 50 | – | – | – | – | – | –
Cc1cccc(-n2nnn(C)c2=O)c1COc1ccn(-c2ccc(Cl)cc2)n1 [Metyltetraprole] | – | – | – | – | – | 0 | 52 | 33 | 33 | 0 | –
COc1ccnc(C(=O)N[C@@H](C)C(=O)O[C@@H](C)C(c2ccc(F)cc2)c2ccc(F)cc2)c1OC(C)=O [Florylpicoxamid] | – | – | – | – | – | 13 | – | 0 | 8 | 6 | –
O=C([O-])O.[Na+] [Sodium hydrogen carbonate] | 33 | 33 | 33 | 33 | 33 | – | – | – | – | – | –
Mancozeb | 17 | 17 | 17 | 17 | 17 | – | – | – | – | – | –
